Laboratory results: paper PMC8308780, “Antiviral Activity of Isoquinolone Derivatives against Influenza Viruses and Their Cytotoxicity” (Pharmaceuticals, 2021)
Structures can show the parent of a compound that is named as a salt. Where two headings read alike, the source gives them in different places.

Tests used:
[1] = test system: A/Hong Kong/8/68 (H3N2; HK); experiment: microbe, parasite or virus in culture; assay type: cell-based; conditions: Influenza A virus, read-out: EC50 against Influenza Virus HK
in vitro [2] = conditions: dog
[3] = test system: A/Puerto Rico/8/34 (H1N1; PR8); experiment: microbe, parasite or virus in culture; assay type: cell-based; conditions: Influenza A virus, read-out: EC50 against Influenza Virus PR8
B/Lee/40 (Lee) = experiment: microbe, parasite or virus in culture; assay type: cell-based, influenza B virus; conditions: unidentified influenza virus, MDCK, read-out: EC50 against Influenza Virus Lee
[4] = test system: influenza A and B viruses (PR8, HK, Lee); experiment: Cytopathic effect assay, values given across the viral strains tested; assay type: cell-based; conditions: Influenza A virus
MDCK cells [5] = experiment: Fluorescein diacetate-based cell viability assay, mock-infected cells (cytotoxicity)
PR8 virus [6] = assay type: cell-based, influenza A virus
[7] = target: influenza A viral polymerase (Influenza A virus, UniProt P03428+P03431+P03433); assay type: cell-based
NA = NA (Influenza A virus, UniProt P03468); experiment: NA activity assay (NA-XTD kit) with purified PR8 virus; assay type: biochemical, influenza A virus PR8; conditions: maximum concentration of 30 µM
Description: An NA activity assay was performed by using the NA-XTD Influenza Neuraminidase assay kit (Applied Biosystems, Foster City, CA, USA) [25, 26]. The influenza A virus PR8 (2.8 × 10^3 PFU) was mixed with the same volume of compounds at 37 °C for 20 min. After an addition of NA-XTD substrate, the mixture was incubated at room temperature for 30 min. The luminescent signal was maximized by the addition of an NA-XTD accelerator according to the manufacturer’s instructions and read using a microplate luminometer (Centro LB960 system; Berthold Technologies, Bad Wildbad, Germany). Half maximum inhibitory concentrations (IC50s) were determined using GraphPad Prism 8.4.2.

PR8 virus [8] = experiment: microbe, parasite or virus in culture; assay type: cell-based, influenza A virus; conditions: for antiviral activity on exposure during viral adsorption: 0–1 h at 4 °C, compound 1 10 µM, EGCG 1 µM
PR8 virus [9] = conditions: 3 or 30 µM, 5 h post-infection
Description: For fluorescence microscopy, PR8 virus-infected MDCK cells (MOI, 3) seeded onto 4-well slides (8.5 × 10^4 cells per well) were treated with DMSO (delivery vehicle), compound 1, or RBV at 33 °C for 5 h. After fixing and permeabilization, viral NP was visualized using an anti-NP antibody (Santa Cruz Biotechnology, Santa Cruz, CA, USA), followed by an Alexa 488-conjugated goat anti-mouse IgG (Invitrogen) [10]. Cells were counterstained with a Vectashield mounting medium containing DAPI (Vector Laboratories, Burlingame, CA, USA). Images were captured under a Zeiss LSM 700 confocal microscope (Carl Zeiss, Thornwood, NY, USA).

PR8 virus [10] = conditions: MDCK cells, subtoxic concentrations, 1 day
in vitro [11] = conditions: dog; remark: listed apart in the source
MDCK cells [12] = conditions: 2-day treatment, concentrations above 0.41 µM
[13] = A/Hong Kong/8/68 (H3N2), MDCK cells
[14] = A/Puerto Rico/8/34 (H1N1), MDCK cells
[15] = PR8, HK and Lee strains, MDCK cells, read-out: EC50 values, range across influenza A and B viruses

NA, sequence (P03468 whole entry): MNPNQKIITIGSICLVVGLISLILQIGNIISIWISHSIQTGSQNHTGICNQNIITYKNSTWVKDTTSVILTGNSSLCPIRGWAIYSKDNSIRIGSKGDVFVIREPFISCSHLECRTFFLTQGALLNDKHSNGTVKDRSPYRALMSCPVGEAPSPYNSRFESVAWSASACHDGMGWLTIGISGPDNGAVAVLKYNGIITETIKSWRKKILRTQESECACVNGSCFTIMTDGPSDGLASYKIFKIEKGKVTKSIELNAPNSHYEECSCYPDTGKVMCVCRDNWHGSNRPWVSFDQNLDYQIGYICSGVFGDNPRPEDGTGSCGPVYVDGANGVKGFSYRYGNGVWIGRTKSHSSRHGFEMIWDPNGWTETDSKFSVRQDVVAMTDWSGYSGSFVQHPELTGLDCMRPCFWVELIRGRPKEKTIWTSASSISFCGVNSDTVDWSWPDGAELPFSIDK

Molecule | EC50 [1, 13] [µM] | CC50 at 3 days (in vitro [2]) [µM] | EC50 [3, 14] [µM] | EC50 (B/Lee/40 (Lee)) [µM] | also measured
COc1ccccc1-c1cc2ccccc2c(=O)[nH]1 [Compound 5] | > 120 | 120 | > 120 | 1.4 | –
Cc1ccc2c(=O)[nH]c(-c3c(C)cccc3C)c(Br)c2c1 [Compound 14] | > 300 | > 300 | > 300 | > 300 | –
Cc1ccc2c(=O)[nH]c(-c3c(C)cccc3C)cc2c1 [Compound 12] | > 300 | > 300 | > 300 | > 300 | –
O=c1[nH]c(-c2ccccc2)cc2ccccc12 [Compound 2, 3-phenylisoquinolone] | 73.4 | > 300 | 45 | 88.1 | –
CCC(CC)O[C@@H]1C=C(C(=O)O)C[C@H](N)[C@H]1NC(C)=O [OSV-C, oseltamivir carboxylate, reference compound] | 0.03 | > 300 | 0.05 | 0.37 | –
CCc1cc2c(cc1-c1cc3ccc(OC)c(O)c3c(=O)n1C)OCO2 [Compound 17] | 5.8 | 109 | 36.8 | > 109 | EC50 ([4]; influenza A strains only (PR8, HK), read-out: EC50 values, range against influenza A viral strains): 5.8 to 36.8 µM
COc1ccc2cc(-c3cc4c(cc3CCO)OCO4)n(C)c(=O)c2c1OC [Compound 19] | 46.2 | > 300 | 59.9 | 22.2 | EC50 [4, 15]: 22.2 to 59.9 µM
COc1cc2cc(-c3ccccc3O)[nH]c(=O)c2cc1OC [Compound 22] | > 300 | > 300 | > 300 | > 300 | –
NC12CC3CC(CC(C3)C1)C2 [AMT, amantadine hydrochloride, reference compound] | 1.6 | – | > 300 | > 300 | CC50 at 3 days (in vitro [2]; mock-infected MDCK cells): > 300 µM
NC(=O)c1ncn([C@@H]2O[C@H](CO)[C@@H](O)[C@H]2O)n1 [RBV, ribavirin, reference compound] | – | – | – | 48.4 | EC50 ([1]; H3N2, MDCK): 43.8 µM; CC50 at 3 days (in vitro [2]; mock-infected MDCK cells): > 300 µM; EC50 ([3]; MDCK): 25 µM
O=c1[nH]c(-c2ccccc2O)cc2ccccc12 [Compound 3] | 103 | > 300 | 57 | 65 | –
COc1ccc2cc(-c3cc4c(cc3CCO)OCO4)[nH]c(=O)c2c1OC [Compound 20] | 11.9 | > 300 | 29.8 | 15.6 | cell death (MDCK cells [5]; 300 µM): approximately 30%
COc1cc2cc(-c3ccccc3)[nH]c(=O)c2cc1OC [Compound 21, 6,7-dimethoxy-3-phenylisoquinolone] | 10.9 | > 300 | 18.5 | 9.9 | EC50 [4, 15]: 9.9 to 18.5 µM; progeny virus production (plaque assay) (PR8 virus [6]): inhibited progeny virus production into MDCK culture supernatants in a dose-dependent manner; viral polymerase activity [7]: efficiently suppressed viral polymerase activity; inhibitory effect on NA activity (NA): no inhibitory effect
CN(C)c1cccc2c(=O)[nH]c(-c3ccc(Br)cc3)cc12 [Compound 9] | > 300 | > 300 | > 300 | > 300 | –
C=Cc1cc2c(cc1-c1cc3ccc(OC)c(OC)c3c(=O)n1C)OCO2 [Compound 18] | 1.4 | 40.3 | 2.8 | 1.1 | –
COc1cc2cc(-c3cccc(C)c3)[nH]c(=O)c2cc1OC [Compound 23] | > 300 | > 300 | > 300 | > 300 | –
O=c1[nH]c(-c2ccccc2CO)cc2ccccc12 [Compound 4] | 81.3 | > 300 | 52.4 | 17.2 | –
Cc1cccc(-c2cc3c(N(C)C)cccc3c(=O)[nH]2)c1 [Compound 6] | > 300 | > 300 | > 300 | 58.7 | –
(-)-epigallocatechin-3-gallate [EGCG, reference compound] | – | – | – | – | antiviral activity on exposure during viral adsorption (PR8 virus [8]): blocked PR8 infection completely
CCc1cc2c(cc1-c1cc3ccc(OC)c(OC)c3c(=O)n1C)OCO2 [Compound 1, 3-(6-ethylbenzo[d][1,3]dioxol-5-yl)-7,8-dimethoxy-2-methylisoquinolin-1(2H)] | 0.3 | 39 | 0.2 | 0.6 | NP-positive cells (confocal microscopy) (PR8 virus [9]): few or no NP-positive cells; viral protein expression (Western blot) (PR8 virus [10]): reducing the expression of viral proteins, including NP and HA; antiviral activity on exposure during viral adsorption (PR8 virus [8]): failed to induce antiviral activity; inhibition at 10 µM (PR8 virus [8]; Influenza A virus, PR8, 7 h, read-out: inhibition of plaque formation): > 80%; EC50 [4, 15]: 0.2 to 0.6 µM; viability at 1 day, 11.11 µM (in vitro [11]): 80%; progeny virus production (plaque assay) (PR8 virus [6]): reducing the number of viral progeny released into the culture supernatant; cell death (MDCK cells [5]; incubation for 2 days, concentrations > 0.41 µM, fluorescein diacetate): > 40%; cell death (MTT) (MDCK cells [12]): > 40%; viral polymerase activity [7]: suppressed viral RNA replication/transcription
CN(C)c1cccc2c(=O)[nH]c(-c3ccc(Cl)cc3)cc12 [Compound 8] | > 300 | > 300 | > 300 | > 300 | –
Cn1c(-c2ccccc2C=O)cc2ccccc2c1=O [Compound 15] | > 300 | > 300 | > 300 | > 300 | –
Cn1c(-c2ccccc2O)c(C=O)c2ccccc2c1=O [Compound 16] | > 148 | 148 | > 148 | > 148 | –
COc1ccc(-c2cc3cc(C)ccc3c(=O)[nH]2)cc1OC [Compound 11] | 94.5 | > 300 | 32.3 | 74.8 | –
COc1ccc(-c2[nH]c(=O)c3ccc(C)cc3c2Br)cc1OC [Compound 13] | 172 | > 300 | 177 | > 300 | –
Cc1ccc(-c2cc3c(N(C)C)cccc3c(=O)[nH]2)cc1 [Compound 7] | > 300 | > 300 | > 300 | > 300 | –
